Data: US20260042731A1, “(2,4-DICHLOROPHENOXY)ACETIC ACID ANALOGS” (CORTEVA AGRISCIENCE LLC, priority 2022, published 2026)
Where two headings read alike, the source gives them in different places.

Assays:
[1] = Volatility of compounds measured by thermogravimetric analysis (TGA); type: physicochemical
[2] = system: Abutilon theophrasti (ABUTH), velvetleaf; assay: Postemergence herbicide evaluation, growth of Abutilon theophrasti (ABUTH); type: in vivo; conditions: Abutilon theophrasti, post-emergence, read-out: AVE. ABUTH, percent reduction in plant size relative to the untreated control
[3] = system: weeds ABUTH, AMATA, AMBEL, CHEAL, ERICA; assay: Postemergence herbicide evaluation, overall average % weed control (ABUTH, AMATA, AMBEL, CHEAL, ERICA); type: in vivo; conditions: post-emergence, read-out: Overall Ave % Weed Control
[4] = system: Amaranthus rudis (AMATA), tall water hemp; assay: Postemergence herbicide evaluation, growth of Amaranthus rudis (AMATA); type: in vivo; conditions: Amaranthus tuberculatus, post-emergence, read-out: Ave. AMATA, percent reduction in plant size relative to the untreated control
[5] = system: glyphosate resistant Conyza canadensis (L.) (ERICA), horseweed; assay: Postemergence herbicide evaluation, growth of Conyza canadensis (ERICA); type: in vivo; conditions: Erigeron canadensis, post-emergence, read-out: Ave. ERICA, percent reduction in plant size relative to the untreated control; for pest or weed control at 280 g/ha: 280 g ae/ha; for pest or weed control at 560 g/ha: 560 g ae/ha
[6] = system: Ambrosia artemisiifolia (AMBEL), common ragweed; assay: Postemergence herbicide evaluation, growth of Ambrosia artemisiifolia (AMBEL); type: in vivo; conditions: Ambrosia artemisiifolia, post-emergence, read-out: AVE. AMBEL, percent reduction in plant size relative to the untreated control
[7] = system: Chenopodium album (CHEAL), common lambsquarters; assay: Postemergence herbicide evaluation, growth of Chenopodium album (CHEAL); type: in vivo; conditions: Chenopodium album, post-emergence, read-out: Ave. CHEAL, percent reduction in plant size relative to the untreated control

C/C(=N\OC(=O)COc1ccc(Cl)cc1Cl)c1ccccc1 [Compound A1, Acetophenone O-(2-(2,4-dichlorophenoxy)acetyl) oxime]
TGA Data (rate of weight loss, volatility) [1]: 0.5 µg/min | pest or weed control at 280 g/ha ([2]; 168 h, 280 g ae/ha, 7 DAA): 83% | pest or weed control at 560 g/ha ([2]; 168 h, 560 g ae/ha, 7 DAA): 85% | pest or weed control at 280 g/ha ([2]; 336 h, 280 g ae/ha, 14 DAA): 96% | pest or weed control at 560 g/ha ([2]; 336 h, 560 g ae/ha, 14 DAA): 97% | pest or weed control at 280 g/ha ([2]; 504 h, 280 g ae/ha, 21 DAA): 97% | pest or weed control at 560 g/ha ([2]; 504 h, 560 g ae/ha, 21 DAA): 100% | pest or weed control at 280 g/ha ([3]; 168 h, 280 g ae/ha, 7 DAA): 73% | pest or weed control at 560 g/ha ([3]; 168 h, 560 g ae/ha, 7 DAA): 77% | pest or weed control at 280 g/ha ([3]; 336 h, 280 g ae/ha, 14 DAA): 87% | pest or weed control at 560 g/ha ([3]; 336 h, 560 g ae/ha, 14 DAA): 92% | pest or weed control at 280 g/ha ([3]; 504 h, 280 g ae/ha, 21 DAA): 89% | pest or weed control at 560 g/ha ([3]; 504 h, 560 g ae/ha, 21 DAA): 95% | pest or weed control at 280 g/ha ([4]; 168 h, 280 g ae/ha, 7 DAA): 73% | pest or weed control at 560 g/ha ([4]; 168 h, 560 g ae/ha, 7 DAA): 78% | pest or weed control at 280 g/ha ([4]; 336 h, 280 g ae/ha, 14 DAA): 85% | pest or weed control at 560 g/ha ([4]; 336 h, 560 g ae/ha, 14 DAA): 87% | pest or weed control at 280 g/ha ([4]; 504 h, 280 g ae/ha, 21 DAA): 80% | pest or weed control at 560 g/ha ([4]; 504 h, 560 g ae/ha, 21 DAA): 82% | pest or weed control at 280 g/ha ([5]; 168 h, 7 DAA): 73% | pest or weed control at 560 g/ha ([5]; 168 h, 7 DAA): 73% | pest or weed control at 280 g/ha ([5]; 336 h, 14 DAA): 90% | pest or weed control at 560 g/ha ([5]; 336 h, 14 DAA): 90% | pest or weed control at 280 g/ha ([5]; 504 h, 21 DAA): 93% | pest or weed control at 560 g/ha ([5]; 504 h, 21 DAA): 98% | pest or weed control at 280 g/ha ([6]; 168 h, 280 g ae/ha, 7 DAA): 65% | pest or weed control at 560 g/ha ([6]; 168 h, 560 g ae/ha, 7 DAA): 80% | pest or weed control at 280 g/ha ([6]; 336 h, 280 g ae/ha, 14 DAA): 88% | pest or weed control at 560 g/ha ([6]; 336 h, 560 g ae/ha, 14 DAA): 97% | pest or weed control at 280 g/ha ([6]; 504 h, 280 g ae/ha, 21 DAA): 95% | pest or weed control at 560 g/ha ([6]; 504 h, 560 g ae/ha, 21 DAA): 100% | pest or weed control at 280 g/ha ([7]; 168 h, 280 g ae/ha, 7 DAA): 70% | pest or weed control at 560 g/ha ([7]; 168 h, 560 g ae/ha, 7 DAA): 70% | pest or weed control at 280 g/ha ([7]; 336 h, 280 g ae/ha, 14 DAA): 78% | pest or weed control at 560 g/ha ([7]; 336 h, 560 g ae/ha, 14 DAA): 89% | pest or weed control at 280 g/ha ([7]; 504 h, 280 g ae/ha, 21 DAA): 83% | pest or weed control at 560 g/ha ([7]; 504 h, 560 g ae/ha, 21 DAA): 98%

O=C(COc1ccc(Cl)cc1Cl)OCc1ccc(COC(=O)COc2ccc(Cl)cc2Cl)cc1 [Compound B1, 1,4-Phenylenebis(methylene) bis(2-(2,4-dichlorophenoxy)acetate)]
TGA Data (rate of weight loss, volatility) [1]: 0.03 µg/min | pest or weed control at 280 g/ha ([2]; 168 h): 5% | pest or weed control at 560 g/ha ([2]; 168 h): 13% | pest or weed control at 280 g/ha ([2]; 336 h): 8% | pest or weed control at 560 g/ha ([2]; 336 h): 5% | pest or weed control at 280 g/ha ([2]; 504 h): 8% | pest or weed control at 560 g/ha ([2]; 504 h): 3% | pest or weed control at 280 g/ha ([3]; 168 h): 19% | pest or weed control at 560 g/ha ([3]; 168 h): 31% | pest or weed control at 280 g/ha ([3]; 336 h): 21% | pest or weed control at 560 g/ha ([3]; 336 h): 29% | pest or weed control at 280 g/ha ([3]; 504 h): 13% | pest or weed control at 560 g/ha ([3]; 504 h): 21% | pest or weed control at 280 g/ha ([4]; 168 h): 40% | pest or weed control at 560 g/ha ([4]; 168 h): 40% | pest or weed control at 280 g/ha ([4]; 336 h): 25% | pest or weed control at 560 g/ha ([4]; 336 h): 35% | pest or weed control at 280 g/ha ([4]; 504 h): 30% | pest or weed control at 560 g/ha ([4]; 504 h): 48% | pest or weed control at 280 g/ha ([6]; 168 h): 23% | pest or weed control at 560 g/ha ([6]; 168 h): 20% | pest or weed control at 280 g/ha ([6]; 336 h): 18% | pest or weed control at 560 g/ha ([6]; 336 h): 18% | pest or weed control at 280 g/ha ([6]; 504 h): 0% | pest or weed control at 560 g/ha ([6]; 504 h): 5% | pest or weed control at 280 g/ha ([7]; 168 h): 15% | pest or weed control at 560 g/ha ([7]; 168 h): 55% | pest or weed control at 280 g/ha ([7]; 336 h): 25% | pest or weed control at 560 g/ha ([7]; 336 h): 53% | pest or weed control at 280 g/ha ([7]; 504 h): 20% | pest or weed control at 560 g/ha ([7]; 504 h): 33%

O=C(COc1ccc(Cl)cc1Cl)OCCOCCOC(=O)COc1ccc(Cl)cc1Cl [Compound B2, Oxybis(ethane-2,1-diyl) bis(2-(2,4-dichlorophenoxy)acetate)]
TGA Data (rate of weight loss, volatility) [1]: 0.04 µg/min | pest or weed control at 280 g/ha ([3]; 168 h): 73% | pest or weed control at 560 g/ha ([3]; 168 h): 75% | pest or weed control at 280 g/ha ([3]; 336 h): 83% | pest or weed control at 560 g/ha ([3]; 336 h): 89% | pest or weed control at 560 g/ha ([3]; 504 h): 94%
